Reference: patent US20160058735A1, “METHODS OF TREATING HYPERHIDROSIS” (Dermira, Inc., priority 2014, published 2016)

Tests used:
[1] = system: patients with severe primary axillary hyperhidrosis; assay: Phase 2a clinical trial: disease severity by Hyperhidrosis Disease Severity Scale (HDSS); format: in vivo, human; conditions: Formulation A, 2% and 4% pooled; first on-treatment assessment, about one week
Procedure: (§1) The completed Phase 2a clinical trial was a randomized, double-blind study in 38 patients with severe primary axillary hyperhidrosis.
(§2) Patients were instructed to apply the study product once daily for four weeks using wipes saturated with either the topical formulation of the reference agent or vehicle only. Efficacy was evaluated based on axillary sweat production and disease severity. Assessments were conducted approximately weekly during the four-week treatment period and two weeks after the end of this treatment period. Disease severity was measured using a widely-used patient-reported outcome tool called the Hyperhidrosis Disease Severity Scale, or HDSS, wherein patients rate the severity of their disease on a four-point scale. Patients who rate the severity of their disease as a three or a four on the HDSS are considered to have severe disease, while those who rate it as one or two are considered to have mild or moderate disease. All 38 patients enrolled in the clinical trial rated the severity of their disease as a three or a four on the HDSS prior to the start of treatment. Trial inclusion criteria required that prior to the start of treatment, all patients produce at least 50 mg of sweat in each axilla over a five-minute period.

[2] = system: patients with severe primary axillary hyperhidrosis; assay: Phase 2a clinical trial: axillary sweat production; format: in vivo, human
Procedure: as §1
as §2, with “Efficacy” for “Patients were instructed to apply the study product once daily for four weeks using wipes saturated with either the topical formulation of the reference agent or vehicle only. Efficacy”, “All 38 patients enrolled in the clinical trial rated the severity of their disease as a three or a four on the HDSS prior to the start of treatment.” left out

[3] = system: patients with severe primary axillary hyperhidrosis; assay: Study DRM04-HH01 (Phase 2b): adverse events
Procedure: Assessments were conducted approximately weekly during the four-week treatment period and the two-week period after the end of this treatment period. […] Trial inclusion criteria required that prior to the start of treatment, all patients produce at least 50 mg of sweat in each axilla over a five-minute period.

C[N+]1(C)CCC(OC(=O)C(O)(c2ccccc2)C2CCCC2)C1.[Br-] (stereo not drawn) [reference agent, threo-glycopyrronium bromide]
patients reporting improvement in disease severity (HDSS) from severe to mild or moderate [1]: Nine of 12
sweat production on average lower than at the start of therapy ([2]; Formulation A, nine patients, end of four-week treatment period): 61%
reversibility of effect on sweating and disease severity ([2]; two weeks following cessation of therapy): appeared to be reversible
patients who withdrew from the study due to adverse events ([3]; 1% cohort): 2.6%
patients who withdrew from the study due to adverse events ([3]; 2% cohort): 5.0%
patients who withdrew from the study due to adverse events ([3]; 3% cohort): 2.5%
patients who withdrew from the study due to adverse events ([3]; 4% cohort): 20.0%
most common TEAEs ([3]; in vivo): dry mouth, upper respiratory tract infection, dry skin and blurred vision
treatment-related serious adverse events ([3]; in vivo): No treatment-related serious adverse events were reported
